“Also recorded” adds a separate entry of the source.
Key:
[1] = YEAK in the serum of mice dosed IV or SC, detected by anti-YEAK ELISA; format: in vivo; conditions: FIG. 4
CCL22 = test: Acute release of CCL22 (MDC) in serum or plasma after YEAK administration in mice; format: in vivo; conditions: FIG. 5
RAW264.7 = test: Bioassay: CCL22 release by monocyte cell line RAW264.7; format: cell-based; conditions: RAW264.7 cells exposed to copolymer; FIGS. 10, 15
Procedure: Following synthesis of RSP compositions of different lengths, for example by solid phase synthesis or by solution phase synthesis, the individual lots or batches made by the same manufacturing process, and individual batches of mixtures manufactured by different processes are tested and compared for variation using bioassays such as the release of CCL22 by the monocyte cell line RAW264.7, by ex vivo proliferation assays, and by measuring the binding of serum proteins to peptides in the RSP composition, it is possible to determine subsets of peptides or even individual peptides that are present in any given process or lot. Processes and lots of RSP compositions will be compared to determine whether the same subsets of peptides and/or types of peptides are consistently represented across the different processes and lots.

[2] = system: Ig fraction of rabbit polyserum; test: ELISA with Ig fraction of rabbit polyserum; format: binding; conditions: FIG. 13
serum proteins = test: Identification of serum proteins bound to PI-2301 or Cop-1 (ELISA / CNBr-Sepharose capture, LC-MS/MS); format: binding, human; conditions: for serum proteins identified as bound: LC-MS/MS of tryptic digest, samples from Example 1 or 2; for binding to the serum proteins listed in Table C: normal human serum, direct ELISA
From the text: As a non-limiting example of the above described identification, PI-2301 or Cop-1 may be used in a direct ELISA assay (see Materials and Methods) to identify serum proteins that bind to the RSP composition comprising YFAK or YEAK peptides. […] It has been observed that YEAK and YFAK peptides have different binding specificities; conversely, serum proteins can be said to bind YEAK and YFAK peptides with different specificities. Tables D and E list serum proteins which associate with HDL and LDL, respectively. Any serum proteins may bind to the RSP composition described herein by varying affinities and selectivities.
An uncoated ELISA plate was blocked with PBS/0.1% Tween 20 for 2 hours at room temperature. PI-2301 or Cop-1 samples were serially diluted in PBS/5% normal human serum and added to the blocked and washed wells of the ELISA plate. The PI-2301 or Cop-1 in normal human serum was bound to the plate and unbound PI-2301 or Cop-1 was removed by washing the plate with PBS/0.05% Tween 20. Protein-A-purified anti-rabbit anti-PI-2301 or anti-rabbit anti-Cop-1, diluted to a suitable concentration based on the titer, was added for 1 hr at RT. After another wash step to remove the unbound rabbit anti-2301 or rabbit anti-Cop-1 antibodies, a secondary antibody, a goat anti-rabbit IgG-HRP (horse radish peroxidase conjugated antibody to rabbit IgG) was added to the well. After washing away any unbound secondary antibody, substrate for HRP was added to the wells and incubated for 15 minutes, which yielded a blue color that turns yellow when stop solution is added, the intensity of which color correlates with the amount of total PI-2301 or Cop-1 in the well. The optical density was measured at 450 nm with a ELISA plate reader and a titer curve was generated for each set of the serum samples spiked with PI-2301 and Cop-1, respectively. The limit of serum PI-2301 or serum Cop-1 detection is defined as the concentration which results in a A450 nm absorption which is 3 times above background. […]
Immobilized RSP compositions were prepared by reacting the peptides with CNBr-activated Sepharose®, a pre-activated large pore chromatography medium used for immobilizing ligands (proteins, peptides, nucleic acids) containing primary amines using the cyanogens bromide method. […] After pH neutralization, the absorbance at 280 nm of the eluted fractions was read to identify fractions containing the ligands. […]
Samples containing PI-2301 binding proteins or Cop-1 binding proteins were obtained by the method of Example 1 or Example 2. These samples were then enzymatically digested and analyzed by liquid chromatography tandem mass spectrometry (LC-MS/MS) for the purpose of identify the proteins which bind PI-2301 or Cop-1. […]

[3] = several hours after subcutaneous administration; various species, including man; cited from earlier work
HLA-DR2 (DRB1*1501) = HLA-DR2 (DRB1*1501) (Homo sapiens, UniProt P01903+P01911); conditions: peptide-specific manner; cited from earlier work
HLA-DR1 (DRB1*0101) = HLA-DR1 (DRB1*0101) (Homo sapiens, UniProt P01903+P01911, A100R/D57E/F55L/F60I/F76Y/I96L/L162R/M171V/P40L/Q125E/R42F/V115G/Y59C); conditions: peptide-specific manner; cited from earlier work
HLA-DR4 (DRB1*0401) = HLA-DR4 (DRB1*0401) (Homo sapiens, UniProt P01903+P01911, A100K/A169T/F76Y/I96L/K127E/L162R/M171V/N62H/P40V/Q125Y/R42H/S133A/S149N/S66Y/V115G/V209L/W38E); conditions: peptide-specific manner; cited from earlier work
[4] = Serum concentration / exposure of PI-2301 compared with Cop-1; conditions: in vivo
From the text: Certain RSP compositions persist much longer in the serum and other biological fluids than other mixtures. For example, a preparation of YFAK, PI-2301, is found at 10 times the serum concentration in comparison to Cop-1 administered at the same initial weight-by-volume concentration (US App. Pub. 2009-0275496). In some instances, the administered peptides are sequestered by or bound to some in vivo component in situ, the result of which is longer half-life in that environment, with or without enhancement in bioavailability. In certain embodiment, the environment is blood plasma or lymph. In an alternative embodiment, the environment is spinal or cerebral fluid. In yet other embodiments, the environment is any tissue or organ locale to which peptides from RSP compositions are delivered.
Without wishing to be bound by theory, mechanistically, binding of peptides within RSP compositions, (e.g. PI-2301 and Cop-1) to the serum proteins such as lipoproteins found associated with HDL and LDL might facilitate their capture by monocytes through receptors such as SR-BI or ABCA1. This binding may induce activation of monocytes and their differentiation into anti-inflammatory cells. PI-2301 and Cop-1 differ in binding to serum proteins (see FIG. 3). […]

[5] = system: preclinical models of multiple sclerosis and Crohn's disease; test: Efficacy in preclinical models of multiple sclerosis and Crohn's disease; format: in vivo
From the text: Without wishing to be bound by theory, mechanistically, binding of peptides within RSP compositions, (e.g. PI-2301 and Cop-1) to the serum proteins such as lipoproteins found associated with HDL and LDL might facilitate their capture by monocytes through receptors such as SR-BI or ABCA1. This binding may induce activation of monocytes and their differentiation into anti-inflammatory cells. PI-2301 and Cop-1 differ in binding to serum proteins (see FIG. 3). One reason for the difference is that Cop-1 and generic variants of glatiramer acetates are made by solution phase peptide synthesis, thus significant variations in composition may be observed from lot to lot. In contrast, PI-2301 is manufactured by solid phase synthesis. […] Thus, the great majority of the PI-2301 52-mer peptides in the mixture is likely to be functional. Cop-1 has a much broader molecular weight distribution, making it likely that some species of the mixture, such as small peptide species, in the mixture are ineffective.

[6] = administered at the same initial weight-by-volume concentration; cited from earlier work

| maximum serum concentration ([1]; mice dosed IV with 4 mg/kg or SC with 21 mg/kg, route for this value not stated) | time of maximum serum concentration ([1]; post dosing, mice IV 4 mg/kg or SC 21 mg/kg) | binding to the serum proteins listed in Table C (serum proteins) | serum exposure compared with Cop-1 [4] | Substance | relation between SC dose and observed maximum CCL22 plasma concentration (CCL22) | CCL22 release (RAW264.7) | recognition by Ig fraction of rabbit polyserum [2] | serum proteins identified as bound (serum proteins) | detection in serum [3] | binding affinity to purified HLA-DR2 (DRB1*1501) (HLA-DR2 (DRB1*1501)) | binding affinity to purified HLA-DR1 (DRB1*0101) (HLA-DR1 (DRB1*0101)) | binding affinity to purified HLA-DR4 (DRB1*0401) (HLA-DR4 (DRB1*0401)) | efficacy (potency) compared with Cop-1 [5] | serum concentration in comparison to Cop-1 [6] |
| --- | --- | --- | --- | --- | --- | --- | --- | --- | --- | --- | --- | --- | --- | --- |
| 1800 ng/mL | around 15 min | experimentally shown to bind | – | glatiramer acetate [Cop-1] | linear correlation | released CCL22 in a concentration dependent manner | interacts strongly | several lipoproteins from the HDL and LDL complexes; also recorded: complement proteins such as C3 and C4A | can be detected | binds with high affinity | binds with high affinity | binds with high affinity | – | – |
| – | – | experimentally shown to bind | greater serum exposure | plovamer [PI-2301] | – | – | – | several lipoproteins from the HDL and LDL complexes | can be detected | – | – | – | more potent than Cop-1 | 10 times |
